Measured values from publication PMC12430544 (Molecules, 2025).

Legend:
[1] = target: T1, acetylcholinesterase (AChE, from an electric eel) (Electrophorus electricus, UniProt O42275); assay: biochemical; conditions: for IC50: electric eel AChE, Ellman's method, pH 7.4, means ± SEM of at least three experiments, read-out: IC50 AChE Inhibition; for Selectivity Index = IC50 (AChE)/IC50 (BuChE): ratio of eeAChE and equine BuChE IC50
T1 construct: purchased Sigma-Aldrich
Protocol: (§1) Cholinesterase (ChE) inhibitory activity was evaluated using a modified Ellman’s spectrophotometric method. Acetylcholinesterase (AChE, from electric eel), butyrylcholinesterase (BuChE, from equine serum), 5,5′-dithiobis-(2-nitrobenzoic acid) (Ellman’s reagent, DTNB), S-butyrylthiocholine iodide (BTCI), acetylthiocholine iodide (ATCI), and tarcine hydrochloride were purchased from Sigma-Aldrich. Tarcine hydrochloride was used as a reference standard. All the assays were carried out in 0.1 M KH2PO4/K2HPO4 buffer (pH = 7.4). Stock solutions of tested compounds (10 mM) were prepared in DMSO (below 0.5%, v/v) and diluted in phosphate buffer. The assay was performed in 96-well plate by adding 25 μL of 1 mM acetylthiocholine iodide or butyrylthiocholine iodide used as substrate in the assay, 125 μL of 1 mM 5,5′-dithiobis-(2-nitrobenzoic acid) (DTNB), 25 μL of 0.1 M phosphate buffer (pH = 7.4), 25 μL of testing substance in various concentrations, and 50 μL of 0.2 Units/mL AChE from an electric eel or BuChE from equine serum, respectively. At least five concentrations of the test compounds were assayed. […] The enzyme activity and the percentage inhibition were determined.

[2] = target: T2, butyrylcholinesterase (BuChE, from horse serum) (Equus caballus, UniProt P81908); assay: biochemical; conditions: equine serum BuChE, Ellman's method, pH 7.4; means ± SEM of at least three experiments; read-out: IC50 BuChE Inhibition
T2 construct: purchased Sigma-Aldrich
Protocol: as §1

[3] = Metal chelation by UV–vis spectrometry, Job's method and affinity estimate (Cu); format: physicochemical; conditions: CH3OH/H2O (v/v = 9/1), UV–vis, 2L+M⇔ML2
Text: (§2) Given the 8-hydroxy(amino)quinoline moiety with the properties to bind metal ions, the abilities of all the compounds in binding metal ions (Cu^II, Fe^III, Zn^II) were studied by UV–vis spectrometry. At first three compounds were chose to test the binding abilities. Upon the addition of CuCl2 or ZnSO4 the maximum absorption suffered a bathochromic shift, pointing out the formation of complex compound–Cu^II. […] […].
(§3) To determine the stoichiometry of the complex compound–Cu^II, the technique of continuous variations (also called Job’s method) was used by preparing solutions of compounds 15a, 17b and CuSO4 so that the sum of concentrations of both species was constant at […] in all samples, but the proportions of both components varied between 0 and 100%. The UV spectra were recorded and the absorbance change at the maximum absorption wavelength of the compound-Cu^II complex, meaning the 15a-Cu^II complex at 264 nm and the 17b-Cu^II at 265 nm, respectively. The absorbance change was plotted versus the mole fraction of the compound, giving two straight lines whose equations were calculated. […] […].
(§4) Since all the ligands studied L from ML2 species and in accordance with the Beer–Lambert law, complexation reactions can be summarized as 2L+M⇔ML2 with K = 1−α/4C^2α^3 , and α can be calculated from the data of the absorption.
(§5) Metal-chelating properties were evaluated by UV–vis spectrometry. To screen the ability of chelating metal ions, the same concentrations of compound and metal ion were mixed in CH3OH/H2O (v/v = 9/1), and the UV–vis spectrum was tested; compared to the compound, the maximum absorption that suffered a bathochromic shift would point out the formation of a complex compound–metal ion. The stoichiometry of the complex compound–metal ion was determined by Job’s method. The affinity of compounds 15–17 as ligands (excepted 15f, 16d, 16g, 16k) for Cu^II or Zn^II were estimated in the CH3OH/H2O solution (v/v = 9/1). Since all the ligands studied L from ML2 species and in accordance with the Beer–Lambert law, complexation reactions can be summarized as 2L+M⇔ML2 with K = 1−α/4C^2α^3 , and α = A/Amax; A was the data of absorption tested when the compound–metal ion = 2/1 under the maximum absorption wavelength of the complex, Amax was the absorption when the compound completely formed a complex with the metal ion; the data can be obtained as an approximation when the metal ion is in excess, and the absorption changes little as the concentration of metal ion still increases.

[4] = Metal chelation by UV–vis spectrometry, stoichiometry and affinity estimate (Zn); format: physicochemical; conditions: CH3OH/H2O (v/v = 9/1), 2L+M⇔ML2
Text: as §2, §3, §4, §5

Aβ1–42 = target: T3, Aβ1–42 (Homo sapiens, UniProt P05067); assay: Inhibition of self-induced Aβ1–42 aggregation (ThT fluorescence); format: biochemical; conditions: 20 μM compound, thioflavin-T fluorescence, mean ± SD of at least three independent experiments; read-out: Aβ Aggregation Inhibition (%), self-induced Aβ1–42
T3 construct: aggregation of Aβ1–42 synthetic peptide into fibrils
Protocol: Self-induced Aβ1–42 aggregation of all the compounds we obtained was also evaluated. […] ThT is a histochemical dye that is known to bind to the peptide β-sheet conformation, which is the predominant secondary structure of amyloid-beta fibrils. […] The inhibition studies were carried out upon incubating Aβ1–42 with and without the compounds.
Aβ1–42 was dissolved in 100% 1,1,1,3,3,3-[…] (HFIP) to a concentration of 1 mg/mL, sonicated in a water bath overnight, aliquoted into microcentrifuge tubes, dried under vacuum, and stored at −20 °C. Immediately prior to use, the HFIP-treated Aβ1–42 was dissolved in dimethylsulfoxide (DMSO) as the stored solution. […] Amounts of 5 μL of compound (200 μM) and 5 μL of 200 μM Aβ1–42 were added into 40 μL of phosphate-buffered saline (PBS at pH 7.4). After incubation at room temperature on a thermostatic shaker for 72 h, 100 μL of 5 μM ThT solution (in PBS at pH 7.4) was added to the reaction solution. […] The Aβ1–42 aggregation inhibition percentage was calculated using the following formula: inhibition percentage = (F1 − F2)/(F1 − F0) × 100%.

T2 sequence (P81908 whole entry): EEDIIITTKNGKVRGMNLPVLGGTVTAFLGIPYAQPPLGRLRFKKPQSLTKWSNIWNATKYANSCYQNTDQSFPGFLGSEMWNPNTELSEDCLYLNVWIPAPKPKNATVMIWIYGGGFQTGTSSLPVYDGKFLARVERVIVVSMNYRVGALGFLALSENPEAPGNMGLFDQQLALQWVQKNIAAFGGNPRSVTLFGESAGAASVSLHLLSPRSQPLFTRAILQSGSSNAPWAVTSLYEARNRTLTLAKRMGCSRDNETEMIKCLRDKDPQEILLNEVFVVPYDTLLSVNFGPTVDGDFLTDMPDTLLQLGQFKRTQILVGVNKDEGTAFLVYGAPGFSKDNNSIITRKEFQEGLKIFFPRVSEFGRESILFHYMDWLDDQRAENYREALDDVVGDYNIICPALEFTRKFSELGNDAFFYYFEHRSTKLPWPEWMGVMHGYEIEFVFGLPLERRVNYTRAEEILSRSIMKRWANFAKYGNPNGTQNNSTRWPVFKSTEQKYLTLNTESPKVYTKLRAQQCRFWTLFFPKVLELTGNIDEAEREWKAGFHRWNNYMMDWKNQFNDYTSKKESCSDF
T3 sequence (P05067 672-713): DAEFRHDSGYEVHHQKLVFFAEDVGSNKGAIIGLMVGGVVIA
T1 sequence (O42275 24-633): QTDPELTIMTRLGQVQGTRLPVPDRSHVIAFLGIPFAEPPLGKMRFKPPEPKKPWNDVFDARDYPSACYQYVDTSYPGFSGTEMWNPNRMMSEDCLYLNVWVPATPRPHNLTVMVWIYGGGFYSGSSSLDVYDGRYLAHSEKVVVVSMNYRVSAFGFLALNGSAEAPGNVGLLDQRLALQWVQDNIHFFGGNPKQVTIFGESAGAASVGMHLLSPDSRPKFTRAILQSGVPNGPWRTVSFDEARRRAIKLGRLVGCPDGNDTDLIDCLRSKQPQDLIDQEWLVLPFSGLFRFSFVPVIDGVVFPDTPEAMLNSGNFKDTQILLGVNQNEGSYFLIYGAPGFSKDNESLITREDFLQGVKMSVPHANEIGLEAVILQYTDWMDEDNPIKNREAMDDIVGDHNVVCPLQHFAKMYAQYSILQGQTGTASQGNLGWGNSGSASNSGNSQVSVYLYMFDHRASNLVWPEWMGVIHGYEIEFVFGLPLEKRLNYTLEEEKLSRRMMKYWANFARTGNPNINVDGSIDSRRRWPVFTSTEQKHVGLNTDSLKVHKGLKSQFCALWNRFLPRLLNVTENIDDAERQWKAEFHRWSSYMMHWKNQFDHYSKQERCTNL

SMILES	IC50 [1]	Selectivity Index = IC50 (AChE)/IC50 (BuChE) [1]	IC50 [2]	LogK Cu (affinity of ligand for Cu^II, ML2) [3]	LogK Zn (affinity of ligand for Zn^II, ML2) [4]	inhibition at 20 µM (Aβ1–42)
O=C(CN1CCN(Cc2ccc3c(Cl)ccc(O)c3n2)CC1)Nc1c2c(nc3ccccc13)CCCC2 [Compound 15b, 2-(4-((5-Chloro-8-hydroxyquinolin-2-yl)methyl)piperazin-1-yl)-N-(1,2,3,4-tetrahydroacridin-9-yl)acetamide]	2.18 ± 0.17 µM	0.19	11.5 ± 1.56 µM	10.09	11.34	–
O=C(CN1CCN(Cc2ccc3c(Cl)cc(Cl)c(O)c3n2)CC1)Nc1c2c(nc3ccccc13)CCCC2 [Compound 15e, 2-(4-((5,7-Dichloro-8-hydroxyquinolin-2-yl)methyl)piperazin-1-yl)-N-(1,2,3,4-tetrahydroacridin-9-yl)acetamide]	5.73 ± 0.17 µM	1.04	5.53 ± 0.27 µM	9.59	9.65	55.9 ± 2.5%
Nc1cccc2ccc(CN3CCN(CC(=O)Nc4c5c(nc6ccccc46)CCCC5)CC3)nc12 [Compound 15f, 2-(4-((8-Aminoquinolin-2-yl)methyl)piperazin-1-yl)-N-(1,2,3,4-tetrahydroacridin-9-yl)acetamide]	1.24 ± 0.21 µM	0.16	7.85 ± 0.71 µM	–	–	22 ± 1.8%
Oc1cccc2ccc(CN3CCN(CCNc4c5c(nc6ccccc46)CCCC5)CC3)nc12 [Compound 16a, 2-((4-(2-((1,2,3,4-Tetrahydroacridin-9-yl)amino)ethyl)piperazin-1-yl)methyl)quinolin-8-ol]	0.44 ± 0.006 µM	1.63	0.27 ± 0.004 µM	9.63	9.48	77 ± 4.3%
Oc1ccc(F)c2ccc(CN3CCN(CCNc4c5c(nc6ccccc46)CCCC5)CC3)nc12 [Compound 16b, 5-Fluoro-2-((4-(2-((1,2,3,4-tetrahydroacridin-9-yl)amino)ethyl)piperazin-1-yl)methyl)quinolin-8-ol]	0.19 ± 0.005 µM	0.95	0.2 ± 0.003 µM	9.99	9.63	22.9 ± 2.4%
Oc1c(Cl)cc(Cl)c2ccc(CN3CCN(CCNc4c5c(nc6ccccc46)CCCC5)CC3)nc12 [Compound 16c, 5,7-Dichloro-2-((4-(2-((1,2,3,4-tetrahydroacridin-9-yl)amino)ethyl)piperazin-1-yl)methyl)quinolin-8-ol]	2.68 ± 0.3 µM	0.79	3.41 ± 0.006 µM	9.75	9.28	92.5 ± 3.3%
Nc1cccc2ccc(CN3CCN(CCNc4c5c(nc6ccccc46)CCCC5)CC3)nc12 [Compound 16d, N-(2-(4-((8-aminoquinolin-2-yl)methyl)piperazin-1-yl)ethyl)-1,2,3,4-tetrahydroacridin-9-amine]	0.18 ± 0.004 µM	0.86	0.21 ± 0.003 µM	–	–	84.7 ± 3.6%
Oc1ccc(F)c2ccc(CN3CCN(CCCNc4c5c(nc6ccccc46)CCCC5)CC3)nc12 [Compound 16f, 5-Fluoro-2-((4-(3-((1,2,3,4-tetrahydroacridin-9-yl)amino)propyl)piperazin-1-yl)methyl)quinolin-8-ol]	0.087 ± 0.002 µM	3.11	0.028 ± 0.002 µM	9.62	9.45	54.4 ± 2.9%
Oc1cccc2ccc(CN3CCN(CCCCCNc4c5c(nc6ccccc46)CCCC5)CC3)nc12 [Compound 16h, 2-((4-(5-((1,2,3,4-Tetrahydroacridin-9-yl)amino)pentyl)piperazin-1-yl)methyl)quinolin-8-ol]	0.21 ± 0.003 µM	2.10	0.1 ± 0.01 µM	9.87	9.63	93.2 ± 3.9%
Oc1ccc(F)c2ccc(CN3CCN(CCCCCNc4c5c(nc6ccccc46)CCCC5)CC3)nc12 [Compound 16i, 5-Fluoro-2-((4-(5-((1,2,3,4-tetrahydroacridin-9-yl)amino)pentyl)piperazin-1-yl)methyl)quinolin-8-ol]	0.4 ± 0.006 µM	3.33	0.12 ± 0.02 µM	9.49	9.49	55.6 ± 5.3%
Oc1ccc(Cl)c2ccc(CN3CCN(CCCCCNc4c5c(nc6ccccc46)CCCC5)CC3)nc12 [Compound 16j, 5-Chloro-2-((4-(5-((1,2,3,4-tetrahydroacridin-9-yl)amino)pentyl)piperazin-1-yl)methyl)quinolin-8-ol]	0.13 ± 0.02 µM	2.89	0.045 ± 0.011 µM	9.96	9.65	74.8 ± 4.7%
Nc1cccc2ccc(CN3CCN(CCCCCNc4c5c(nc6ccccc46)CCCC5)CC3)nc12 [Compound 16k, N-(5-(4-((8-aminoquinolin-2-yl)methyl)piperazin-1-yl)pentyl)-1,2,3,4-tetrahydroacridin-9-amine]	0.21 ± 0.003 µM	3.89	0.054 ± 0.004 µM	–	–	86.7 ± 3.8%
O=C(CN1CCN(Cc2ccc(O)c3ncccc23)CC1)Nc1c2c(nc3ccccc13)CCCC2 [Compound 17a, 2-(4-((8-Hydroxyquinolin-5-yl)methyl)piperazin-1-yl)-N-(1,2,3,4-tetrahydroacridin-9-yl)acetamide]	4.46 ± 0.33 µM	1.08	4.13 ± 0.1 µM	9.50	9.67	24.6 ± 3.7%
COc1cc(/C=C/C(=O)CC(=O)/C=C/c2ccc(O)c(OC)c2)ccc1O [curcumin, reference compound]	–	–	–	–	–	58.3 ± 2.5%
